Laboratory results: US7763626B2, “Compositions and method for enhancing the therapeutic activity of opiods in treatment of pain” (Trustees of Dartmouth College, priority 2004, dated 2010)

How the values were obtained:
Assay type in all cases: in vivo, rat
[1] = tested on: Male Sprague-Dawley rats; assay: Hot water tail-flick test, morphine withdrawal-induced thermal hyperalgesia
Procedure: (§1) Male Sprague-Dawley rats (175-200 grams, Harlan, Indianapolis, Ind.) were divided into two groups (n=8 per group). Rats received subcutaneous injections of either saline or morphine (10 mg/kg; Sigma, St. Louis, Mo.) twice daily at 0800 to 0900 and 1600-1700 hour for 5 days in order to induce opioid tolerance. Chronic morphine withdrawal-induced hyperalgesia and allodynia were assessed in the animals 16 hours after the last injection of morphine. Following the recording of morphine withdrawal-induced hyperalgesia and allodynia, animals were treated with morphine (5 microgram) acutely via lumbar intrathecal injection to study the expression of morphine tolerance. Acute analgesic activity or intrathecal morphine in morphine-tolerant and chronic aline-treated rats were evaluated by mechanical (Analgesy-Meter) and thermal (tail-flick) test paradigms. Behaviors recorded prior to the acute administration of intrathecal morphine served as the basal latency measures.
(§2) With an understanding of the effects of morphine alone, separate groups of rats (n=8) received with saline or morphine (10 mg/kg subcutaneously, twice daily for 5 days) and also received once daily injections (at 1100 to 1200 hour) of propentofylline (1 and 10 micrograms) or saline via direct lumbar puncture during the induction of morphine tolerance. Again, chronic morphine withdrawal-induced hyperalgesia and allodynia were assessed in the animals 16 hours after the last subcutaneous morphine injection. Following the recording of morphine withdrawal-induced hyperalgesia and allodynia, animals were treated with morphine (5 micrograms) acutely via lumbar puncture to study the expression of morphine tolerance. As before, the acute analgesic activity of intrathecal morphine in morphine-tolerant and saline-injected rats was evaluated by mechanical (Analgesy-Meter) and thermal (tail-flick) test paradigms. Behavior recorded prior to the acute administration of intrathecal morphine served as the basal latency.
Thermal nociceptive thresholds were evaluated by the hot water tail-flick test that has been described previously (Bian, D. et al. 1999. Brain Res. 831:55-63). The test consisted of immersing the tail of the rats in water maintained at 49° C. and then recording the latency to a rapid flick. A 15 second cut-off time was used. Again, the total number of responses elicited during three successive trials separated by at least 10 minutes was recorded and then expressed as the % maximal possible effect. The tester was again blinded to the test groups.

[2] = tested on: IL-6 mRNA; assay: RNase protection assay, cytokine mRNA at L5 lumbar spinal cord; conditions: ratio of expression compared with saline-treated animals (=1), propentofylline 10 μg intrathecally 5 days, morphine 10 mg/kg twice daily 5 days
Procedure: (§6) After behavioral testing for reactions to the combined treatment, rats were sacrificed and decapitated. An 18-gauge needle was inserted into the caudal end of the vertebral column and the spinal cord was expelled with ice-cold phosphate-buffered saline. The spinal cord was frozen immediately on dry ice and stored at −80° C. until homogenization. The L5 lumbar spinal cord was isolated from the intact frozen cord at the time of mRNA and protein quantification. Total RNA was isolated from the L5 spinal cord by the TRIzol extraction method (Invitrogen Corporation, Carlsbad, Calif).
(§7) Assessment of the temporal cytokine mRNA expression in the L5 lumber spinal cord was performed using a Ribonuclease Protection Assay technique. A Multiprobe RPAse kit was used (Pharmingen, San Diego, Calif.). Total RNA (15 μg) was hybridized to ^32P-labeled antisense RNA probes transcribed using the rat cytokine-1 (rCK-1) multiprobe template set resulting in double-stranded target RNA. After Rnase digestion, protected RNA and probe were resolved on a denaturing polyacrylamide gel and visualized by overnight autoradiography. Quantitative image analysis was employed to compare mRNA levels based on band intensities for each cytokine. The intensity of each band was measured using image analysis software and assigned an arbitrary unit based on the measured intensity levels. The value for the normalized quantity for each band was obtained by dividing by the L32 house-keeping gene control. Individual mRNA concentration was calculated as the ratio of the expression compared with saline-treated animals in which normal values were weighted as 1.

[3] = tested on: GFAP mRNA; assay: Real-time PCR of GFAP mRNA at L5 lumbar spinal cord; conditions: compared to saline-treated controls; morphine 10 mg/kg twice daily 5 days, or propentofylline 10 micrograms intrathecally 5 days in saline-treated rats
Procedure: (§3) Total RNA was treated with DNase I (Ambion, Austin, Tex.) to remove DNA contamination before cDNA synthesis. The reverse transcription (RT) was carried out in a 100 μl total reaction volume containing RT buffer, dNTPs, multiscribe reverse transcriptase, RNase-free water and 10 μg of DNase-treated total RNA. The RT reaction was carried out at 25° C. for 10 minutes, 37° C. for 120 minutes, and 95° C. for 5 minutes. Real-time PCR analysis was performed using gene-specific primers and probes that were designed and blasted against GENBANK to confirm their species and gene specificity. […] The real-time PCR reactions were carried out using Platinum Taq DNA polymerase, 20 mM Tris HCl (pH 8.4), 50 mM KCl, 3 mM MgCl2, 200 μM dGTP, dCTP, and dATP, 400 μM of dUTP and 1 U uracyl DNA glycosylase (UDG), 900 nM forward and reverse primers, 300 nM TaqMan probe, and 10-fold dilution of cDNA (50 ng) from the RT step. Primers and probes for glyceraldehyde-3-phosphate (GADPH), GFAP and Mac-1 were obtained form Applied Biosystems (LaJolla, Calif.). The relative standard curves generated by plotting the threshold value versus the log of the amount of total cDNA added to the reaction (1-10000 pg) were used to compare the relative amount of target genes from control and chronic morphine-treated animals.

[4] = tested on: Mac-1 mRNA; assay: Real-time PCR of Mac-1 mRNA at L5 lumbar spinal cord; conditions: compared to saline-treated controls; morphine 10 mg/kg twice daily 5 days, or propentofylline 10 micrograms intrathecally 5 days in saline-treated rats
Procedure: as §3

[5] = tested on: Male Sprague-Dawley rats; assay: Morphine tolerance model, acute intrathecal morphine evaluated by thermal and mechanical test paradigms; conditions: chronic subcutaneous morphine 10 mg/kg twice daily for 5 days; noxious thermal and mechanical testing paradigms
Procedure: as §1
as §2, with “Following the recording of morphine withdrawal-induced hyperalgesia and allodynia, animals were treated with morphine (5 micrograms) acutely via lumbar puncture to study the expression of morphine tolerance.” left out
(§4) In blinded testing, rats were subjected to sequential series of 10 tactile stimulations to the dorsal surface of the ipsilateral hindpaw using […] von Frey filaments (Stoelting Co., WoodDale, Ill.) sequentially. The number of foot withdrawals to this normally non-noxious stimulus determined mechanical allodynia. Mechanical sensitivity was assessed by recording the total number of responses elicited during three successive trials separated by at least 10 minutes. The pressure required to elicit paw withdrawal, the paw pressure threshold was determined.
Thermal nociceptive thresholds were evaluated by the hot water tail-flick test that has been described previously (Bian, D. et al. 1999. Brain Res. 831:55-63). […] Again, the total number of responses elicited during three successive trials separated by at least 10 minutes was recorded and then expressed as the % maximal possible effect. […]

[6] = tested on: IL-1β mRNA; assay: RNase protection assay, cytokine mRNA at L5 lumbar spinal cord; conditions: ratio of expression compared with saline-treated animals (=1), propentofylline 10 μg intrathecally 5 days, morphine 10 mg/kg twice daily 5 days
Procedure: as §6, §7

[7] = tested on: IL-1β protein; assay: Cytokine protein estimation by ELISA at L5 spinal cord; conditions: ELISA, propentofylline 10 μg intrathecally 5 days, morphine 10 mg/kg twice daily 5 days
Procedure: (§5) Quantitative determination of IL-1β, TNF-α and IL-6 protein was performed on the L5 spinal cord of the rats. […] Briefly, weighed sections of L5 spinal cord were homogenized in a homogenization buffer consisting of a protease inhibitor using the a Power Gen 125 tissue tearer (Fisher Scientific, Suwanee, Ga.). Samples were spun at 20,000×g for 30 minutes at 4° C. Supernatant was aliquoted and stored at −80° C. for future protein quantification. IL-1β and TNF-α (R&D Systems, Minneapolis, Minn.) and IL-6 (Biosource, Camarillo, Calif.) protein concentrations were determined utilizing the quantitative sandwich enzyme immunoassay.

[8] = tested on: TNF-α protein; assay: as above; conditions: ELISA, propentofylline 10 μg intrathecally 5 days, morphine 10 mg/kg twice daily 5 days
Procedure: as §5

[9] = tested on: IL-6 protein; assay: as above; conditions: ELISA, propentofylline 10 μg intrathecally 5 days, morphine 10 mg/kg twice daily 5 days
Procedure: as §5

[10] = tested on: Male Sprague-Dawley rats; assay: Paw pressure test (Analgesy-Meter), morphine withdrawal-induced mechanical hyperalgesia
Procedure: as §1, §2, §4

[11] = tested on: Male Sprague-Dawley rats; assay: Mechanical allodynia (von Frey filaments), morphine withdrawal
Procedure: as §1, §2
Mechanical sensitivity was measured as the frequency of foot withdrawals elicited by a defined mechanical stimulus. Each rat, under unrestrained conditions, was placed beneath an inverted, ventilated Plexiglas cage upon an elevated aluminum screen surface with 1 cm mesh openings. Animals had been previously acclimated to the environment and the experimenter.
as §4

[12] = 16 hours after last injection, morphine 10 mg/kg s.c. twice daily 5 days and/or propentofylline 10 micrograms intrathecally once daily 5 days
[13] = 16 hours after last morphine injection (10 mg/kg s.c. twice daily 5 days), propentofylline 1 and 10 micrograms intrathecally for 5 days during induction of tolerance

Question: Which Tail-flick latency [1, 12] does the source give for CN1CC[C@]23c4c5ccc(O)c4O[C@H]2[C@@H](O)C=C[C@H]3[C@H]1C5 [morphine] here?
Answer: 3.7 ± 0.2 s

Question: And the “morphine withdrawal-induced noxious thermal hyperalgesia” value [1, 13]?
Answer: led to withdrawal-induced thermal and mechanical hyperalgesia

Question: What about the “IL-6 mRNA at the L5 lumbar spinal cord” value [2] of the same compound?
Answer: significantly increased

Question: And the “IL-6 mRNA at the L5 lumbar spinal cord” value ([2]; listed as Morphine)?
Answer: 1.85 ± 0.16

Question: What about the “GFAP mRNA levels at the L5 lumbar spinal cord” value [3] of the same compound?
Answer: significant increases

Question: What about the “Mac-1 mRNA levels at the L5 lumbar spinal cord” value [4] of the same compound?
Answer: significant increases

Question: And the “anti-nociceptive tolerance to acute intrathecal morphine (5 micrograms)” value [5]?
Answer: demonstrated anti-nociceptive tolerance

Question: What about the “IL-1β mRNA at the L5 lumbar spinal cord” value [6] of the same compound?
Answer: significantly increased

Question: What about the “IL-1β mRNA at the L5 lumbar spinal cord” value ([6]; listed as Morphine) of the same compound?
Answer: 1.92 ± 0.14

Question: And the “IL-1β protein level at the L5 lumbar spinal cord” value [7]?
Answer: significantly increased

Question: And the “IL-1β protein level at the L5 lumbar spinal cord” value ([7]; listed as Morphine)?
Answer: 73.5 ± 9.2

Question: And the “TNF-α protein level at the L5 lumbar spinal cord” value [8]?
Answer: not significantly increased

Question: And the “TNF-α protein level at the L5 lumbar spinal cord” value ([8]; listed as Morphine)?
Answer: 36.6 ± 5.6

Question: And the “IL-6 protein level at the L5 lumbar spinal cord” value [9]?
Answer: significantly increased

Question: What about the “IL-6 protein level at the L5 lumbar spinal cord” value ([9]; listed as Morphine) of the same compound?
Answer: 359 ± 62.4

Question: And the Paw pressure latency [10, 12]?
Answer: 69.8 ± 4.8 grams

Question: What about the “morphine withdrawal-induced mechanical hyperalgesia” value [10, 13] of the same compound?
Answer: led to withdrawal-induced thermal and mechanical hyperalgesia

Question: What about the “morphine withdrawal-induced mechanical allodynia” value [11, 13] of the same compound?
Answer: led to withdrawal-induced thermal and mechanical hyperalgesia and mechanical allodynia

Question: What about the “Mechanical allodynia (2 grams)” value ([11]; number of foot withdrawals, 2 grams von Frey filament, morphine 10 mg/kg s.c. twice daily 5 days and/or propentofylline 10 micrograms intrathecally) of the same compound?
Answer: 3.9 ± 0.5

Question: And the “Mechanical allodynia (12 grams)” value ([11]; number of foot withdrawals, 12 grams von Frey filament, morphine 10 mg/kg s.c. twice daily 5 days and/or propentofylline 10 micrograms intrathecally)?
Answer: 6.9 ± 0.7
